Assay results: patent US9193721B2, “Fused derivatives as PI3Kδ inhibitors” (Incyte Holdings Corporation, priority 2010, dated 2015)
Where a name gives a salt, the structure may show the parent alone.

Tests used:
[1] = test system: Pfeiffer cell line (diffuse large B cell lymphoma); test: Pfeiffer cell proliferation assay; assay type: cell-based; details: Homo sapiens, [3H]-thymidine incorporation after 3-4 days plus 12 hours
Method: Pfeiffer Cell Proliferation Assay
Pfeiffer cell line (diffuse large B cell lymphoma) was purchased from ATCC (Manassas, Va.) and maintained in the culture medium recommended (RPMI and 10% FBS). To measure the anti-proliferation activity of the compounds, the Pfeiffer cells were plated with the culture medium (2×10^3 cells/well/per 200 μl) into 96-well ultra-low binding plates (Corning, Corning, N.Y.), in the presence or absence of a concentration range of test compounds. After 3-4 days, [^3H]-thymidine (1 μCi/well) (PerkinElmer, Boston, Mass.) in PBS was then added to the cell culture for an additional 12 hours before the incorporated radioactivity was separated by filtration with water through GF/B filters (Packard Bioscience, Meridenj, Conn.) and measured by liquid scintillation counting with a TopCount (Packard Bioscience).

PI3Kδ (p110δ/p85α) = target: T1, PI3Kδ (p110δ/p85α) (Homo sapiens, UniProt O00329); test: PI3Kδ scintillation proximity assay (assay A); assay type: biochemical; details: 20 μM PIP2, 20 μM ATP, 4 nM PI3Kδ, 210 minutes, room temperature
T1 construct: purchased Millipore (Bedford, Mass.)
T1 sequence (O00329 whole entry): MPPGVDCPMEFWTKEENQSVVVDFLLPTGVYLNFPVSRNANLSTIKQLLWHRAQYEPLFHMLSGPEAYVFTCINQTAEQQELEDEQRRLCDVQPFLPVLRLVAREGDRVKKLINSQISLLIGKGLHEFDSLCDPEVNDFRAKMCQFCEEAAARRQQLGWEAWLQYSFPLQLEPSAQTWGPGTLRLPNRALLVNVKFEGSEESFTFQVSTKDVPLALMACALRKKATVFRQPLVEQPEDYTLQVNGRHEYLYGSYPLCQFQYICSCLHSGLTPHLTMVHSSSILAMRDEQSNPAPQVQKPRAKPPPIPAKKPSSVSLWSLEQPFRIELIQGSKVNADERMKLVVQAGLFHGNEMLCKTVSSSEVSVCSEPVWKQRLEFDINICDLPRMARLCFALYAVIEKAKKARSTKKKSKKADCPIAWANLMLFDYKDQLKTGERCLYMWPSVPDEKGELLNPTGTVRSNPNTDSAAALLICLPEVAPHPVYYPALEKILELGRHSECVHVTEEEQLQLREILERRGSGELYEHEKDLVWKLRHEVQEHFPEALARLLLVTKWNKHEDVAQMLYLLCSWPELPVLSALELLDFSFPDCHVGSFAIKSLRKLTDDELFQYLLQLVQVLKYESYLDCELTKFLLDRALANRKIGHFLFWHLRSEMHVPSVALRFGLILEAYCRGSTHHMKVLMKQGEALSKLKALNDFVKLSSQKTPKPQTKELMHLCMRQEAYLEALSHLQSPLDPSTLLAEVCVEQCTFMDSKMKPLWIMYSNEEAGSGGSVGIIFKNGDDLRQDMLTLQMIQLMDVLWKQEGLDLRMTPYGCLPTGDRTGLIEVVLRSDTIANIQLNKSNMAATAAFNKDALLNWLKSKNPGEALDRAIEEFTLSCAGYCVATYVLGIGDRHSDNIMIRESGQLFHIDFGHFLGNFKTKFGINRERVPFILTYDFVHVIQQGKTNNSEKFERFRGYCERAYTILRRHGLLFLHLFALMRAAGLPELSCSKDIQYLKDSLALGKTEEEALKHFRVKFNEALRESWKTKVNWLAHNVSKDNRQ
T1 sequence (P27986 whole entry partner): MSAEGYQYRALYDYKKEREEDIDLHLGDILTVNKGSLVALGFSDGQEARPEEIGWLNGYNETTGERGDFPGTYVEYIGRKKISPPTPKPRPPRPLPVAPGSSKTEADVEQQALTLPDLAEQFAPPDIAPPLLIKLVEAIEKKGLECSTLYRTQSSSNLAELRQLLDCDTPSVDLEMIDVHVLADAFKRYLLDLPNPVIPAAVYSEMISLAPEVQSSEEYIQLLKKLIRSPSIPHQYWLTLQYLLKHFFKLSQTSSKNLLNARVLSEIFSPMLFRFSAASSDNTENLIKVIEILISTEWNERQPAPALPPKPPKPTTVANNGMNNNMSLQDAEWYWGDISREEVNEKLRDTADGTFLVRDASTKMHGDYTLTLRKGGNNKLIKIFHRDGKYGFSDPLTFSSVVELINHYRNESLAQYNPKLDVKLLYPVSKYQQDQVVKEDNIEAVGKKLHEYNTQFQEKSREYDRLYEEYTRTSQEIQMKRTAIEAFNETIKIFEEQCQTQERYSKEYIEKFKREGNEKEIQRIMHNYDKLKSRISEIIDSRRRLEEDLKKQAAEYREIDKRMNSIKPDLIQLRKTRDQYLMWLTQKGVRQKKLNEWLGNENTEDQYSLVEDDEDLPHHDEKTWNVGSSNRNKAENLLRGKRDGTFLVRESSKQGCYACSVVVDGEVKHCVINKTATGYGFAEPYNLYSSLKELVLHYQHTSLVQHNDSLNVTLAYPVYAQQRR
Method: PI3Kδ Scintillation Proximity Assay
[γ-33P] ATP (10 mCi/mL) was purchased from Perkin-Elmer (Waltham, Mass.). […] PI3Kδ (p110δ/p85α) was purchased from Millipore (Bedford, Mass.). ATP, MgCl2, DTT, EDTA, MOPS and CHAPS were purchased from Sigma-Aldrich (St. Louis, Mo.). Wheat Germ Agglutinin (WGA) YSi SPA Scintillation Beads was purchased from GE healthcare life sciences (Piscataway, N.J.).
The kinase reaction was conducted in polystyrene 384-well matrix white plate from Thermo Fisher Scientific in a final volume of 25 μL. Inhibitors were first diluted serially in DMSO and added to the plate wells before the addition of other reaction components. The final concentration of DMSO in the assay was 0.5%. The PI3K assays were carried out at room temperature in 20 mM MOPS, pH 6.7, 10 mM MgCl2, 5 mM DTT and CHAPS 0.03%. Reactions were initiated by the addition of ATP, the final reaction mixture consisted of 20 μM PIP2, 20 μM ATP, 0.2 μCi [γ-^33P] ATP, 4 nM PI3Kδ. Reactions were incubated for 210 minutes and terminated by the addition of 40 μL SPA beads suspended in quench buffer: 150 mM potassium phosphate pH 8.0, 20% glycerol. 25 mM EDTA, 400 μM ATP. The final concentration of SPA beads is 1.0 mg/mL. After the plate sealing, plates were shaken overnight at room temperature and centrifuged at 1800 rpm for 10 minutes, the radioactivity of the product was determined by scintillation counting on Topcount (Perkin-Elmer). IC50 determination was performed by fitting the curve of percent control activity versus the log of the inhibitor concentration using the GraphPad Prism 3.0 software.

SMILES	IC50 [1] [nM]	IC50 (PI3Kδ (p110δ/p85α)) [nM]
CC(Nc1ncnc2[nH]cnc12)c1cc(Cl)c2cncn2c1N1CCN(C(=O)c2cnn(C)c2)CC1 (stereo not drawn) [Example 11, N-[1-(8-Chloro-5-{4-[(1-methyl-1H-pyrazol-4-yl)carbonyl]piperazin-1-yl}imidazo[1,5-a]pyridin-6-yl)ethyl]-9H-purin-6-amine]	> 3000	< 50
CC(Nc1ncnc2[nH]cnc12)c1cc(Cl)c2cncn2c1N1CC[C@H](O)C1 (stereo partly drawn) [Example 24, (3S)-1-{8-Chloro-6-[1-(9H-purin-6-ylamino)ethyl]imidazo[1,5-a]pyridin-5-yl}pyrrolidin-3-ol]	≤ 100	< 50
CC(=O)N1CCN(c2c(C(C)Nc3ncnc4[nH]cnc34)cc(C)c3cncn23)CC1 (stereo not drawn) [Example 32, N-{1-[5-(4-Acetylpiperazin-1-yl)-8-methylimidazo[1,5-a]pyridin-6-yl]ethyl}-9H-purin-6-amine bis(trifluoroacetate)]	> 3000	< 50
CCN(CC)c1c(C(C)Nc2ncnc3[nH]cnc23)cc(Cl)c2cnc(C)n12 (stereo not drawn) [Example 25, N-{1-[8-Chloro-5-(diethylamino)-3-methylimidazo[1,5-a]pyridin-6-yl]ethyl}-9H-purin-6-amine]	500 to 1000	< 50
CC(=O)N1CCN(c2c(C(C)Nc3ncnc4[nH]cnc34)cc(Br)c3cncn23)CC1 (stereo not drawn) [Example 30, N-{1-[5-(4-Acetylpiperazin-1-yl)-8-bromoimidazo[1,5-a]pyridin-6-yl]ethyl}-9H-purin-6-amine bis(trifluoroacetate)]	100 to 500	< 50
Cc1ncc2c(Cl)cc(C(C)Nc3ncnc4[nH]cnc34)c(-c3cc(F)cc(F)c3)n12 (stereo not drawn) [Example 19, N-{1-[8-Chloro-5-(3,5-difluorophenyl)-3-methylimidazo[1,5-a]pyridin-6-yl]ethyl}-9H-purin-6-amine]	≤ 100	< 50
CCC(Nc1ncnc2[nH]cnc12)c1cc(Cl)c2cnc(C)n2c1-c1cc(F)cc(F)c1 (stereo not drawn) [Example 20, N-{1-[8-Chloro-5-(3,5-difluorophenyl)-3-methylimidazo[1,5-a]pyridin-6-yl]propyl}-9H-purin-6-amine]	100 to 500	< 50
CC(Nc1ncnc2[nH]cnc12)c1cc(Cl)c2ccnn2c1-c1cccc(F)c1 (stereo not drawn) [Example 26, N-{1-[4-chloro-7-(3-fluorophenyl)pyrazolo[1,5-a]pyridin-6-yl]ethyl}-9H-purin-6-amine]	≤ 100	< 50
CO[C@H]1CCN(c2c(C(C)Nc3ncnc4[nH]cnc34)cc(Cl)c3cncn23)C1 (stereo partly drawn) [Example 22, N-(1-{8-Chloro-5-[(3S)-3-methoxypyrrolidin-1-yl]imidazo[1,5-a]pyridin-6-yl}ethyl)-9H-purin-6-amine]	≤ 100	< 50
CC(Nc1ncnc2[nH]cnc12)c1cc(F)c2cncn2c1-c1cccc(F)c1 (stereo not drawn) [Example 29, N-{1-[8-Fluoro-5-(3-fluorophenyl)imidazo[1,5-a]pyridin-6-yl]ethyl}-9H-purin-6-amine]	500 to 1000	< 50
CO[C@@H]1CCN(c2c(C(C)Nc3ncnc4[nH]cnc34)cc(Cl)c3cncn23)C1 (stereo partly drawn) [Example 21, N-(1-{8-Chloro-5-[(3R)-3-methoxypyrrolidin-1-yl]imidazo[1,5-a]pyridin-6-yl}ethyl)-9H-purin-6-amine]	≤ 100	< 50
CC(Nc1ncnc2[nH]cnc12)c1cc(F)c2ccnn2c1-c1cccc(F)c1 (stereo not drawn) [Example 27, N-{1-[4-fluoro-7-(3-fluorophenyl)pyrazolo[1,5-a]pyridin-6-yl]ethyl}-9H-purin-6-amine]	≤ 100	< 50
CC(Nc1ncnc2[nH]cnc12)c1cc(Cl)c2cncn2c1-c1cccc(F)c1 (single isomer, unassigned) [1, isomer 1]	≤ 100	< 50
CC(Nc1ncnc2[nH]cnc12)c1cc(Cl)c2cncn2c1-c1cccc(F)c1 (single isomer, unassigned) [1, isomer 2]		50 to 200
Cc1ncc2c(Cl)cc(C(C)Nc3ncnc4[nH]cnc34)c(-c3cccc(F)c3)n12 (racemic) [Example 2, N-{1-[8-Chloro-5-(3-fluorophenyl)-3-methylimidazo[1,5-a]pyridin-6-yl]ethyl}-9H-purin-6-amine]		< 50

Other lines, results leading:

IC50 [1] [nM]	IC50 (PI3Kδ (p110δ/p85α)) [nM]	SMILES
> 3000	200 to 750	CC(=O)N1CCN(c2c(C(C)Nc3ncnc4[nH]cnc34)cc(C#N)c3cncn23)CC1 (stereo not drawn) [Example 31, 5-(4-Acetylpiperazin-1-yl)-6-[1-(9H-purin-6-ylamino)ethyl]imidazo[1,5-a]pyridine-8-carbonitrile bis(trifluoroacetate)]
> 3000	< 50	COCC(=O)N1CCN(c2c(C(C)Nc3ncnc4[nH]cnc34)cc(Cl)c3cncn23)CC1 (stereo not drawn) [Example 8, N-(1-{8-chloro-5-[4-(methoxyacetyl)piperazin-1-yl]imidazo[1,5-a]pyridin-6-yl}ethyl)-9H-purin-6-amine]
≤ 100	50 to 200	CC(Nc1ncnc2[nH]cnc12)c1cc(Cl)c2cncn2c1N1CCN(CCCC(F)(F)F)CC1 (stereo not drawn) [Example 14, N-(1-{8-Chloro-5-[4-(4,4,4-trifluorobutyl)piperazin-1-yl]imidazo[1,5-a]pyridin-6-yl}ethyl)-9H-purin-6-amine]
100 to 500	200 to 750	CC(Nc1ncnc2[nH]cnc12)c1cc(Cl)c2cncn2c1N1CCN(CC2CCCO2)CC1 (stereo not drawn) [Example 16, N-(1-{8-Chloro-5-[4-(tetrahydrofuran-2-ylmethyl)piperazin-1-yl]imidazo[1,5-a]pyridin-6-yl}ethyl)-9H-purin-6-amine]
≤ 100	50 to 200	CC(Nc1ncnc2[nH]cnc12)c1cc(Cl)c2cncn2c1N1CC[C@@H](O)C1 (stereo partly drawn) [Example 23, (3R)-1-{8-Chloro-6-[1-(9H-purin-6-ylamino)ethyl]imidazo[1,5-a]pyridin-5-yl}pyrrolidin-3-ol]
500 to 1000	50 to 200	CC(Nc1ncnc2[nH]cnc12)c1cc(Cl)c2cncn2c1N1CCN(CC#N)CC1 (stereo not drawn) [Example 13, (4-{8-Chloro-6-[1-(9H-purin-6-ylamino)ethyl]imidazo[1,5-a]pyridin-5-yl}piperazin-1-yl)acetonitrile]
500 to 1000	< 50	CC(=O)N1CCN(c2c(C(C)Nc3ncnc4[nH]cnc34)cc(Cl)c3cncn23)CC1 (stereo not drawn) [Example 4, N-{1-[5-(4-Acetylpiperazin-1-yl)-8-chloroimidazo[1,5-a]pyridin-6-yl]ethyl}-9H-purin-6-amine]
100 to 500	200 to 750	COCCN1CCN(c2c(C(C)Nc3ncnc4[nH]cnc34)cc(Cl)c3cncn23)CC1 (stereo not drawn) [Example 12, N-(1-{8-Chloro-5-[4-(2-methoxyethyl)piperazin-1-yl]imidazo[1,5-a]pyridin-6-yl}ethyl)-9H-purin-6-amine]
≤ 100	< 50	CC(Nc1ncnc2[nH]cnc12)c1cc(Cl)c2cncn2c1N1CCNCC1 (stereo not drawn) [Example 9, N-[1-(8-Chloro-5-piperazin-1-ylimidazo[1,5-a]pyridin-6-yl)ethyl]-9H-purin-6-amine dihydrochloride]
100 to 500	< 50	CC(Nc1ncnc2[nH]cnc12)c1cc(Cl)c2cncn2c1N1CCN(C(=O)C2CC2)CC1 (stereo not drawn) [Example 7, N-(1-{8-Chloro-5-[4-(cyclopropylcarbonyl)piperazin-1-yl]imidazo[1,5-a]pyridin-6-yl}ethyl)-9H-purin-6-amine]
100 to 500	200 to 750	CC(Nc1ncnc2[nH]cnc12)c1cc(Cl)c2cncn2c1N1CCN(CC2CC2)CC1 (stereo not drawn) [Example 17, N-(1-{8-Chloro-5-[4-(cyclopropylmethyl)piperazin-1-yl]imidazo[1,5-a]pyridin-6-yl}ethyl)-9H-purin-6-amine]
> 3000	50 to 200	CC(Nc1ncnc2[nH]cnc12)c1cc(Cl)c2cncn2c1N1CCN(C(=O)OC(C)(C)C)CC1 (stereo not drawn) [Example 6, tert-Butyl 4-{8-chloro-6-[1-(9H-purin-6-ylamino)ethyl]imidazo[1,5-a]pyridin-5-yl}piperazine-1-carboxylate]
> 3000	50 to 200	CC(Nc1ncnc2[nH]cnc12)c1cc(Cl)c2cncn2c1N1CCN(S(C)(=O)=O)CC1 (stereo not drawn) [Example 5, N-(1-{8-chloro-5-[4-(methylsulfonyl)piperazin-1-yl]imidazo[1,5-a]pyridin-6-yl}ethyl)-9H-purin-6-amine]
